{
  "source": "paper PMC8406774",
  "about": "“A Comparison of Two Monoterpenoid Synthases Reveals Molecular Mechanisms Associated With the Difference of Bioactive Monoterpenoids Between Amomum villosum and Amomum longiligulare” (Frontiers in Plant Science, 2021)",
  "test_in_all_cases": "GC-MS of terpene products after phosphatase treatment",
  "format_in_all_cases": "biochemical",
  "key": {"[1]": {"target": "T1, AvBPPS (Wurfbainia villosa, UniProt A0A2Z4K4Q8)", "T1 construct": "gene TPS3; full length 596 residues; recombinant, cloned in the authors' earlier work (Wang et al. 2018); truncation and tag not restated here", "T1 sequence (A0A2Z4K4Q8 entry or part of it)": "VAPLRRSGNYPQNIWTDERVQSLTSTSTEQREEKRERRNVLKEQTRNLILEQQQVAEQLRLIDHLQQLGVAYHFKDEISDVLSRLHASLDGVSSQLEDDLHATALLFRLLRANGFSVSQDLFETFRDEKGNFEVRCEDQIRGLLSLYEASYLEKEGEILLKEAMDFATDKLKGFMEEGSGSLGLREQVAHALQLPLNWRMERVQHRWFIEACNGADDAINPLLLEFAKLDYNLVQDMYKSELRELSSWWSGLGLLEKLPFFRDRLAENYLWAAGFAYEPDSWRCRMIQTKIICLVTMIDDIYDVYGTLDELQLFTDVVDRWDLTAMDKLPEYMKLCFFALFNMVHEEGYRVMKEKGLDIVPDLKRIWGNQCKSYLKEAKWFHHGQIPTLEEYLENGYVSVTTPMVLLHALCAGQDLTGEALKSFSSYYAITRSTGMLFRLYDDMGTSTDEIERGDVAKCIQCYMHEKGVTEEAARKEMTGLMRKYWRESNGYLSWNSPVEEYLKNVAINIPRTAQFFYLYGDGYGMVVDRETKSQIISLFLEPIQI", "conditions": "30 C, 1 h; then alkaline phosphatase 37 C"}, "[2]": {"target": "T2, AlTPS3 (Wurfbainia longiligularis, UniProt A0A7L7T473, A496G)", "T2 construct": "gene TPS3; ORF 1791 bp, printed as 597 residues; predicted 47-residue N-terminal plastid transit peptide removed", "T2 sequence (A0A7L7T473 entry or part of it A496G)": "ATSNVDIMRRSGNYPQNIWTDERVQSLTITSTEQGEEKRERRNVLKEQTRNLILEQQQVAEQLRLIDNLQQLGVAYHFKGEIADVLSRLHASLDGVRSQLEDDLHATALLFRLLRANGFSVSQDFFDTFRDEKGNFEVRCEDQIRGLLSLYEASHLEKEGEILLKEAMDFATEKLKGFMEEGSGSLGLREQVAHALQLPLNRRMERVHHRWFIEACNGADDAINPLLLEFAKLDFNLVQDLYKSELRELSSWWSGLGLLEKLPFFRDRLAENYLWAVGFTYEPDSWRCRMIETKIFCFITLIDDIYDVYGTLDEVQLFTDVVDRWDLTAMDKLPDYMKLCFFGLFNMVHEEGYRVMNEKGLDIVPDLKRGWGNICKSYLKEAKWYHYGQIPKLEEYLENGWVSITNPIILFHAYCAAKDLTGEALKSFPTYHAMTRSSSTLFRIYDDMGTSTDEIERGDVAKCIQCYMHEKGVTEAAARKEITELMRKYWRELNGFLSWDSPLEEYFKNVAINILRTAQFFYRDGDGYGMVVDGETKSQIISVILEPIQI", "conditions": "overnight incubation with GPP; conserved DTE motif"}, "[3]": {"target": "T3, AvTPS2 (Wurfbainia villosa, UniProt A0A7L7TAQ2)", "T3 construct": "gene TPS2; full ORF 587 residues; predicted 34-residue N-terminal plastid transit peptide removed", "T3 sequence (A0A7L7TAQ2 35-587)": "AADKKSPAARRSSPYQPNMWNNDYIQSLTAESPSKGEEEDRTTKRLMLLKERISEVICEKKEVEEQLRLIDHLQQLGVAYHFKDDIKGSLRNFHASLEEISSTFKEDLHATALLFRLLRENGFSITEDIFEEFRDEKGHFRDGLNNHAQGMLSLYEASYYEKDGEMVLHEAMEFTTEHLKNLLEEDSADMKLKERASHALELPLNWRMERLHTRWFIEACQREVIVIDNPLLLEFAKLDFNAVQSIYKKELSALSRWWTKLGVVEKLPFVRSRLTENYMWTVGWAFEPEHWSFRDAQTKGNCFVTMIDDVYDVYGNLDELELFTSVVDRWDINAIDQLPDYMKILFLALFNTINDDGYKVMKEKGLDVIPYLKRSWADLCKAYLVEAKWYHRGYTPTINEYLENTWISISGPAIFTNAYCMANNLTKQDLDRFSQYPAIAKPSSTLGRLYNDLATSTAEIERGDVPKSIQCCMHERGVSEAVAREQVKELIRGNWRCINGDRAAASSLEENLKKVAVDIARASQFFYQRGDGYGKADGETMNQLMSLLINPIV", "conditions": "30 C, 1 h; then alkaline phosphatase 37 C"}, "[4]": {"target": "T4, AlTPS2 (Wurfbainia longiligularis, UniProt A0A7L7T499)", "T4 construct": "gene TPS2; full ORF 587 residues; predicted 34-residue N-terminal plastid transit peptide removed; MBP fusion (pMAL-c5X), E. coli Rosetta (DE3), about 108 kDa, tag kept", "T4 sequence (A0A7L7T499 35-587)": "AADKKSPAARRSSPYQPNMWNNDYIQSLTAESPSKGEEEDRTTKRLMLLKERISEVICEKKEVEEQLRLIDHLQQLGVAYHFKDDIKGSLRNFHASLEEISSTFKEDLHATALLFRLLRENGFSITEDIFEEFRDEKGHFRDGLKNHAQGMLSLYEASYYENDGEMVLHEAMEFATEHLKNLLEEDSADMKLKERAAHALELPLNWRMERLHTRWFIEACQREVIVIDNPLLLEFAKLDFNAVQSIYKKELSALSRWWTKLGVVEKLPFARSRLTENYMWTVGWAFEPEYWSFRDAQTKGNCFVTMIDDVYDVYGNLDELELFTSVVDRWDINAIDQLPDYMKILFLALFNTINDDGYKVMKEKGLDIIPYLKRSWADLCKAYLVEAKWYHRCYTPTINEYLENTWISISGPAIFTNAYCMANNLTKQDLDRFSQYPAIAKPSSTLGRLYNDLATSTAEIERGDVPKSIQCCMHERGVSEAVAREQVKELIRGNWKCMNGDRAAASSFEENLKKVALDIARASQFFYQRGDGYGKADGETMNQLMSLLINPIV", "conditions": "30 C, 1 h; then alkaline phosphatase 37 C"}, "[5]": {"target": "T5, AlTPS3 (Wurfbainia longiligularis, UniProt A0A7L7T473)", "T5 construct": "gene TPS3; ORF 1791 bp, printed as 597 residues; predicted 47-residue N-terminal plastid transit peptide removed", "T5 sequence (A0A7L7T473 48-597)": "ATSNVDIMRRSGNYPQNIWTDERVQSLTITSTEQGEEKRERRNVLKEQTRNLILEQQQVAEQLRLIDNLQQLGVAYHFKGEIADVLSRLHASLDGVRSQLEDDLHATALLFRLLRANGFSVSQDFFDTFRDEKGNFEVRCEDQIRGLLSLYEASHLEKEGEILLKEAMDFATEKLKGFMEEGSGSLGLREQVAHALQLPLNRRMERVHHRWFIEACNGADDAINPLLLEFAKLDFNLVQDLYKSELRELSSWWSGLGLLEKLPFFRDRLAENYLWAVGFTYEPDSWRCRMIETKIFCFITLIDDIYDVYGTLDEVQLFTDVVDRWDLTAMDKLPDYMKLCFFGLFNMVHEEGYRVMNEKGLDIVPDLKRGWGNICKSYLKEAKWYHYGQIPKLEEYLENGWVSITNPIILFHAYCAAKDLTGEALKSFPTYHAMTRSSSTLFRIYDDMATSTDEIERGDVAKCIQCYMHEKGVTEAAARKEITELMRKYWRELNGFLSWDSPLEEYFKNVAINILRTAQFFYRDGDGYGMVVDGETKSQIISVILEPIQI", "conditions": "30 C, 1 h; then alkaline phosphatase 37 C"}},
  "data": [
    {"smiles": "CC(C)=CCC/C(C)=C/COP(=O)(O)OP(=O)(O)O", "note": "[GPP]", "values": [
      {"measurement": "GC-MS of terpene products after phosphatase treatment", "setting": "[1]", "result": "reaction products generated by recombinant protein AlTPS3 and AvBPPS from GPP"},
      {"measurement": "GC-MS of terpene products after phosphatase treatment", "setting": "[2]", "result": "the site-directed mutant of AlTPS3-A496G and AvBPPS-G495A were constructed, and the overnight reaction with GPP"},
      {"measurement": "GC-MS of terpene products after phosphatase treatment", "setting": "[3]", "result": "When the substrate was GPP, AlTPS2, and AvTPS2 produced the monoterpene product linalool"},
      {"measurement": "GC-MS of terpene products after phosphatase treatment", "setting": "[4]", "result": "When the substrate was GPP, AlTPS2, and AvTPS2 produced the monoterpene product linalool"},
      {"measurement": "GC-MS of terpene products after phosphatase treatment", "setting": "[5]", "result": "AlTPS3 recombinant protein catalyzed GPP to produce camphene as the major product"}
    ]}
  ]
}
